Experimental data reported in patent US9181227B2, “Potent and selective inhibitors of hepatitis C virus” (Cocrystal Pharma, Inc., priority 2010, dated 2015).
pEC50: −log10 of the molar value. Like-named read-outs stand apart in the source and are kept apart here.

What was measured:
Type in all cases: cell-based
[1] = tested on: HCV 1b; experiment: HCV Replicon Assay; conditions: Hepatitis C virus
Procedure: (§1) Huh 7 Clone B cells containing HCV Replicon RNA would be seeded in a 96-well plate at 5000 cells/well, and the compounds tested at 10 μM in triplicate immediately after seeding. Following five days incubation (37° C., 5% CO2), total cellular RNA was isolated by using versaGene RNA purification kit from Gentra. Replicon RNA and an internal control (TaqMan rRNA control reagents, Applied Biosystems) were amplified in a single step multiplex Real Time RT-PCR Assay. The antiviral effectiveness of the compounds was calculated by subtracting the threshold RT-PCR cycle of the test compound from the threshold RT-PCR cycle of the no-drug control (ΔCt HCV). A ΔCt of 3.3 equals a 1-log reduction (equal to 90% less starting material) in Replicon RNA levels. The cytotoxicity of the compounds was also calculated by using the ΔCt rRNA values. 2′-C-Me-C was used as the positive control. To determine EC90 and IC50 values^2, ΔCt: values were first converted into fraction of starting material^3 and then were used to calculate the % inhibition.
• 1. Stuyver L et al., Ribonucleoside analogue that blocks replication or bovine viral diarrhea and hepatitis C viruses in culture. Antimicrob. Agents Chemother. 2003, 47, 244-254. • 2. Reed I J & Muench H, A simple method or estimating fifty percent endpoints. Am. J. Hyg. 27: 497, 1938. • 3.
A series of additional compounds was evaluated using the methods described herein.

[2] = Cytotoxicity in replicon cells by ΔCt rRNA values; conditions: human, Huh 7 Clone B cells containing HCV replicon RNA
Procedure: as §1

[3] = tested on: human PBM cells; experiment: Cellular toxicity assay, PBM cells; conditions: cytotoxicity IC50, human PBM cells
Procedure: (§2) The toxicity of the compounds was assessed in Vero, human PBM, CEM (human lymphoblastoid), MT-2, and HepG2 cells, as described previously (see Schinazi R. F., Sommadossi J.-P., Saalmann V., Cannon D. L., Xie M.-Y., Hart G. C., Smith G. A. & Hahn E. F. Antimicrob. Agents Chemother. 1990, 34, 1061-67). Cycloheximide was included as positive cytotoxic control, and untreated cells exposed to solvent were included as negative controls. The cytotoxicity IC50 was obtained from the concentration-response curve using the median effective method described previously (see Chou T.-C. & Talalay P. Adv. Enzyme Regul. 1984, 22, 27-55; Belen'kii M. S. & Schinazi R. F. Antiviral Res. 1994, 25, 1-11).

[4] = tested on: CEM (human lymphoblastoid) cells; experiment: Cellular toxicity assay, CEM cells; conditions: cytotoxicity IC50, CEM cells
Procedure: as §2

[5] = tested on: Vero cells; experiment: Cellular toxicity assay, Vero cells; conditions: cytotoxicity IC50, Vero cells
Procedure: as §2

[6] = 120 h, Huh 7 Clone B cells containing HCV Replicon RNA, five days incubation, read-out: Replicon activity (Median Effective concentration EC50 range against HCV 1b)
[7] = 120 h, Huh 7 Clone B cells containing HCV Replicon RNA, five days incubation, read-out: Replicon EC50 (range against HCV 1b)
[8] = Huh-7, 120 h, read-out: Replicon EC50 (range against HCV 1b)

| Structure (SMILES) | pEC50 [1, 6] | pEC50 [1, 7] | CC50 at 5 days [2] | Toxicities PBM [3] | Toxicities CEM [4] | Toxicities VERO [5] | pEC50 [1, 8] |
| --- | --- | --- | --- | --- | --- | --- | --- |
| COC(=O)N[C@H](C(=O)N1CCC[C@H]1c1ncc(-c2ccc(N=[N+]=[N-])cc2)[nH]1)C(C)C | 7.00 to 9.00 |  |  |  |  |  |  |
| COC(=O)N[C@@H](CC(C)C)C(=O)N1CCC[C@H]1c1ncc(-c2ccc(-c3ccccc3)cc2)[nH]1 | 6.00 to 7.00 |  |  |  |  |  |  |
| COC(=O)N[C@H](C(=O)N1C[C@@H](SC)C[C@H]1c1ncc(-c2ccc(-c3ccc(-c4cnc([C@@H]5C[C@H](SC)CN5C(=O)[C@@H](NC(=O)OC)C(C)C)[nH]4)cc3)cc2)[nH]1)C(C)C |  | > 9.00 | > 1000 nM | 15.6 µM | 13.3 µM | 10.9 µM |  |
| COC(=O)N[C@H](C(=O)N1C[C@@H](n2cc(C(=O)OC)nn2)C[C@H]1c1ncc(-c2ccc(-c3ccc(-c4cnc([C@@H]5C[C@H](n6cc(C(=O)OC)nn6)CN5C(=O)[C@@H](NC(=O)OC)C(C)C)[nH]4)cc3)cc2)[nH]1)C(C)C |  |  | > 1000 nM | 53 µM | 13.5 µM |  | 6.00 to 7.00 |
| COC(=O)N[C@H](C(=O)N1C[C@H](n2cc(-c3ccccc3)nn2)C[C@H]1c1ncc(-c2ccc(-c3ccc(-c4cnc([C@@H]5C[C@@H](n6cc(-c7ccccc7)nn6)CN5C(=O)[C@@H](NC(=O)OC)C(C)C)[nH]4)cc3)cc2)[nH]1)C(C)C |  | 7.00 to 9.00 | > 1000 nM | > 100 µM | > 100 µM | > 100 µM |  |
| COC(=O)N[C@H](C(=O)N1C[C@H](n2ccnn2)C[C@H]1c1ncc(-c2ccc(-c3ccc(-c4cnc([C@@H]5C[C@@H](n6cc([Si](C)(C)C)nn6)CN5C(=O)[C@@H](NC(=O)OC)C(C)C)[nH]4)cc3)cc2)[nH]1)C(C)C |  | 7.00 to 9.00 | > 1000 nM | 3 µM | 16.2 µM | > 100 µM |  |
| COC(=O)N[C@H](C(=O)N1CCC[C@H]1c1ncc(-c2ccc(-n3cc(-c4cncn4C)nn3)cc2)[nH]1)C(C)C | 6.00 to 7.00 |  |  |  |  |  |  |
| COC(=O)N[C@H](C(=O)N1C[C@H](n2cc([Si](C)(C)C)nn2)C[C@H]1c1ncc(-c2ccc(-c3ccc(-c4cnc([C@@H]5C[C@@H](n6cc([Si](C)(C)C)nn6)CN5C(=O)[C@@H](NC(=O)OC)C(C)C)[nH]4)cc3)cc2)[nH]1)C(C)C |  | 7.00 to 9.00 | > 1000 nM | > 100 µM | 25.2 µM | > 100 µM |  |
| COC(=O)N[C@H](C(=O)N1C[C@@H](n2cc(COC(C)=O)nn2)C[C@H]1c1ncc(-c2ccc(-c3ccc(-c4cnc([C@@H]5C[C@H](n6cc(COC(C)=O)nn6)CN5C(=O)[C@@H](NC(=O)OC)C(C)C)[nH]4)cc3)cc2)[nH]1)C(C)C |  |  | > 1000 nM | 53 µM | 13.5 µM |  | 6.00 to 7.00 |
| COC(=O)N[C@H](C(=O)N1CCC[C@H]1c1ncc(-c2ccc(-n3cc(-c4ccccc4)nn3)cc2)[nH]1)C(C)C [Methyl ((S)-3-methyl-1-oxo-1-((S)-2-(5-(4-(4-phenyl-1H-1,2,3-triazol-1-yl)phenyl)-1H-imidazol-2-yl)pyrrolidin-1-yl)butan-2-yl)carbamate] | 6.00 to 7.00 |  |  |  |  |  |  |
| COC(=O)N[C@H](C(=O)N1CCC[C@H]1c1ncc(-c2ccc(-c3ccccc3)cc2)[nH]1)C(C)C [Methyl ((S)-1-((S)-2-(5-([1,1′-biphenyl]-4-yl)-1H-imidazol-2-yl)pyrrolidin-1-yl)-3-methyl-1-oxobutan-2-yl)carbamate] | 6.00 to 7.00 |  |  |  |  |  |  |
| C#Cc1ccc(-c2cn(-c3ccc(-c4cnc(C5CCCN5C(=O)[C@@H](NC(=O)OC)C(C)C)[nH]4)cc3)nn2)cc1 (stereo partly shown) | 7.00 to 9.00 |  |  |  |  |  |  |
